Test results published in patent publication US5679680A, “α-substituted hydrazides having calpain inhibitory activity” (Warner-Lambert Company, priority 1995, dated 1997).

Key:
[1] = tested on: Spectrin Breakdown in Human Leukemic Molt-4 cells; assay: Cell-based calpain assay: spectrin breakdown in Molt-4 cells treated with calcium ionophore A23187; settings: 1 hour preincubation, 15 μM A23187, 90 minutes, read-out: IC50 for inhibition of spectrin breakdown (145 kD fragment formation)
Protocol: Calpain inhibitor was added to the wells if desired and preincubated for 1 hour. […] The cells were then lysed with 2% (w/v) SDS, 5 mM EGTA, 5 mM EDTA, 150 mM NaCl, 0.5 mM PMSF, 10 μg/mL AEBSF, 5 μg/mL leupeptin, 10 μg/mL pepstatin, 10 μg/mL TLCK, 10 μg/mL TPCK, and 20 mM Tris-HCl (pH 7.4) at room temperature for 5 to 10 minutes. One hundred microliters of 100% (w/v) TCA was added and total protein precipitate was collected by microcentrifugation. The final pellets were neutralized with Tris base. Protein samples (50 μg) were run on SDS-PAGE with the Tris-glycine running buffer system and transferred onto a PVDF membrane. The blots were probed with an anti-spectrin (nonerythroid) antibody and a second antibody with alkaline phosphatase conjugate. The blots were developed with nitro blue tetrazolium and 5-bromo-4-chloro-3-indolyl-phosphate.

Human Calpain II = biological target: T1, Human Calpain II (Homo sapiens, UniProt P17655); assay: Calpain II activity, casein substrate, Coomassie microplate assay; format: biochemical; settings: casein 0.5 mg/mL (Table I)
T1 sequence (P17655 1-700): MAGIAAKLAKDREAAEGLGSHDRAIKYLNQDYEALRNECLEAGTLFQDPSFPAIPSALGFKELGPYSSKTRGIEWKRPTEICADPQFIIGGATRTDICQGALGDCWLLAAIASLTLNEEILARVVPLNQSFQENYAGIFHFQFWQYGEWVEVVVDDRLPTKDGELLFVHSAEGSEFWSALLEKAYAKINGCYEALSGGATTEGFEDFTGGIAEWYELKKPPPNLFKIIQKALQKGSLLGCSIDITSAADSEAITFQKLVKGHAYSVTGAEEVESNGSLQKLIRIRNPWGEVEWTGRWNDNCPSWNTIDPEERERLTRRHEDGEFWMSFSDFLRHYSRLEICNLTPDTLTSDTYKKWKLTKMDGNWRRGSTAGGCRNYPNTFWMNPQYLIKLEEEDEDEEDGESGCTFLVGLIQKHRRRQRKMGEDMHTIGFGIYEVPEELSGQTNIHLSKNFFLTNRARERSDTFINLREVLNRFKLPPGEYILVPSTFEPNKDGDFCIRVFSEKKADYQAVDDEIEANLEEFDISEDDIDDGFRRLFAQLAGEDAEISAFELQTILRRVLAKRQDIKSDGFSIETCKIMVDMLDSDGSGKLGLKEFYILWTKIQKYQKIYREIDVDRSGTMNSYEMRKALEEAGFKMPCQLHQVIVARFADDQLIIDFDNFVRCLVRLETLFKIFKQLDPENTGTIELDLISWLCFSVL
T1 sequence (P04632 1-268 partner): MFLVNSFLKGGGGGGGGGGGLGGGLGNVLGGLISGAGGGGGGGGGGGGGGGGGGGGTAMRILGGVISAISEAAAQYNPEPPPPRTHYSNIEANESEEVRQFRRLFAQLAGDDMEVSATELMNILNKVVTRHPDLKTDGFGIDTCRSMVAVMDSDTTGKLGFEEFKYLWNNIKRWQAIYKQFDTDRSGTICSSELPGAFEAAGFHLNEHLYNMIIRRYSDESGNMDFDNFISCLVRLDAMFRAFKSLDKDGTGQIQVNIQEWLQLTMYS
Protocol: Assay of calpain activity: Calpain I was purified from human erythrocytes as described by Wang K K W, Roufogalis B D, and Villalobo A, Arch Biochem Biophys 1988;267: 317-327. Calpain activity was assayed in a 96-well microplate format (Buroker-Kilgore M and Wang K K W, Anal Bio Chem 1993;208: 387-392). In 250 μL of reaction mixture, substrate casein (0.5 mg/mL) was incubated with 0.01 unit (80-120 ng) calpain I, 20 mM dithiothreitol (DTT), 50 mM Tris-HCl (pH 7.4 at 25° C.) and 4 mM CaCl2 at 25° C. for 60 minutes. Two 100-μL aliquots were taken for Coomassie blue G250 binding analysis to quantify the remaining casein.
Compound concentrations that cause 50% inhibition (IC50) are as shown (Table I). The second rate of inactivation of calpain I for 2 compounds are also shown.
(§1) Selectivity of α-substituted Hydrazides: Calpain I and II were assayed as described in Example 1. One to 2 ng papain (papaya latex, Sigma, P3125), 1.25 μg trypsin (bovine pancreas, Sigma, T8003), 5 μg thermolysin (Bacillus thermoproteolyticus, Sigma, P1512) were assayed using 0.5 mg/mL casein as substrate in the microplate format (250 μL reaction volume), essentially a described by Buroker-Kilgore, M. and Wang K K W, Anal Biochem 1993;208: 387-392. Cathepsin B (0.002 unit, bovine spleen) was assayed with 50 mM MES (pH 5.5), 100 μM carbobenzoxy-Arg-Arg-4-methoxy-beta-naphthlamide (Cbz-Arg-Arg-MNA), inhibitor, and 2 mM DTT in 200 μL for 60 minutes at room temperature. Fifty-microliter aliquots were transferred to a fluorescence-compatible plate and then read with a Perkin-Elmer fluorometer LS-50B (excitation 340 nm and emission 425 nm). Calcineurin (bovine brain, Sigma) (5 μg, 0.8 unit) was assayed with 10 mM p-nitrophenyl phosphate in 1 mM DTT, 1 mM CaCl2, 1 mM MnCl2, […] calmodulin (CaM, if added), and 50 mM Tris-HCl (pH 7.4) at 25° C. for 60 minutes or more. Production of p-nitrophenol was monitored at 405 nm. Inhibition of these proteases are presented as IC50.

Calmodulin-calcineurin = biological target: T2, Calmodulin-calcineurin (Bos taurus, UniProt P48452); assay: Calmodulin-calcineurin assay (p-nitrophenyl phosphate); format: biochemical, bovine; settings: pH 7.4, 25° C., 60 minutes or more
T2 construct: purchased Sigma; host or cells: bovine brain
Protocol: as §1

[2] = tested on: Purkinje cells in cerebellar slices; assay: AMPA toxicity to Purkinje cells in cerebellar slices; format: cell-based, rat; settings: 100 μM compound
Protocol: (ii) Neuroprotective effects of the compound of Example 5 against AMPA toxicity to Purkinje cells in cerebellar Slices: Cerebellar slices were acutely isolated from adult rats and maintained in an oxygenated bath for the duration of the experiment as described elsewhere (Caner, et al., Brain Research 1993;607: 354-356). Example 5 (100 μM) was added to the ACSF (124 mM NaCl, 3.3 mM KCl, 2 mM CaCl2, 25.7 mM NaHCO3, 2.4 mM MgSO4, 1.25 mM KH2 PO4, 10 mM glucose) 60 minutes before the addition of amino-3-hydroxy-5-methyl-4-isoxazole propionic acid (AMPA; 30 μM for 30 minutes). The slices were then allowed to recover in normal ACSF for an additional 90 minutes. Histological damage to Purkinje cells was identified and quantified as described in detail elsewhere (Caner, et al., Brain Research 1993;607: 354-356).

O=C(CCl)NN=c1[nH]c2ccccc2n(-c2ccccc2)c1=O [Example 5, 2-Chloro-acetic acid (3-oxo-4-phenyl-3,4-dihydro-1H-quinoxalin-2-ylidene)-hydrazide]
IC50 [1]: 25 µM
IC50 (Human Calpain II): 0.59 µM
IC50 (Calmodulin-calcineurin): > 500 µM
AMPA-induced neurotoxicity ([2]; AMPA 30 μM): can be ameliorated
viability at 100 µM ([2]; Rattus norvegicus, purkinje, 0.5 h, AMPA 30 μM for 30 minutes, mean ± SEM (10), p < 0.005 vs AMPA alone (13.41 ± 2.34), Control 94.41 ± 0.97, read-out: % Live Purkinje Neurons): 51 ± 4.8%
